From the NIST ThermoML archive (doi:10.1016/j.fluid.2013.12.024)
± gives the expanded uncertainty stated by the source.

Experiments:
[1] = Molar enthalpy of transition or fusion; conditions: Crystal; DSC
[2] = Crystal; DTA

## O=c1c(-c2ccc(O)cc2)coc2cc(O)ccc12 [daidzein]
[1]
  Molar enthalpy of transition or fusion: 8.38 ± 0.234 kcal/mol
[2]
  Normal melting temperature: 315.67 ± 0.5 °C
